A value given as a limit tells only on which side of the number the result lay.

This is an account of results in US10851073B2, “Protein tyrosine phosphatase inhibitors and methods of use thereof” (Calico Life Sciences LLC, priority 2019, dated 2020).

Test [1] deals with T1, His tagged PTPN2 (TC45) protein (Homo sapiens, UniProt P17706).
T1 construct: made in house
T1 sequence (P17706 with tags, fused parts or gaps isoform P17706-2): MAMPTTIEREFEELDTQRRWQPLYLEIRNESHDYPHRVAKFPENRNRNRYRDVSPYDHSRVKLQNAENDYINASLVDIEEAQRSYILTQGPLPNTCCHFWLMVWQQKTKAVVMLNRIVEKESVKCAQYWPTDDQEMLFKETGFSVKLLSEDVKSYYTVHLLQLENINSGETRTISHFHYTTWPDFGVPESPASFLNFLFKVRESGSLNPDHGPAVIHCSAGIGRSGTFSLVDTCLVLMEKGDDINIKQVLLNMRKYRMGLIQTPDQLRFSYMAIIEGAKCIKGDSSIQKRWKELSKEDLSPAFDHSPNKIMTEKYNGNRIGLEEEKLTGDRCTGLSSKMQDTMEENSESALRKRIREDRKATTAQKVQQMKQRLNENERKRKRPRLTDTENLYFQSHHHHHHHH
As to the kind of experiment: Mobility shift assay used to determine potency of PTPN2 inhibitors. Type of test: biochemical. As to conditions: enzyme 0.5 nM, substrate 2 μM; read-out: PTPN2 MSA IC50. In outline:
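Microfluidic mobility-shift read-out (488/530 nm) of dephosphorylation of an OG488-tagged phosphotyrosine insulin receptor peptide, 2 μM, over 10 min at room temperature, after 10 min compound preincubation with 0.5 nM enzyme. Buffer: 50 mM HEPES pH 7.5, EGTA, EDTA, Tween 20, DTT. IC50 derived from % inhibition over 12-point 1:3 series.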

For test [2], the target named is T2, His tagged full-length PTPN1 protein (Homo sapiens, UniProt P18031).
T2 construct: made in house
T2 sequence (P18031 with tags, fused parts or gaps): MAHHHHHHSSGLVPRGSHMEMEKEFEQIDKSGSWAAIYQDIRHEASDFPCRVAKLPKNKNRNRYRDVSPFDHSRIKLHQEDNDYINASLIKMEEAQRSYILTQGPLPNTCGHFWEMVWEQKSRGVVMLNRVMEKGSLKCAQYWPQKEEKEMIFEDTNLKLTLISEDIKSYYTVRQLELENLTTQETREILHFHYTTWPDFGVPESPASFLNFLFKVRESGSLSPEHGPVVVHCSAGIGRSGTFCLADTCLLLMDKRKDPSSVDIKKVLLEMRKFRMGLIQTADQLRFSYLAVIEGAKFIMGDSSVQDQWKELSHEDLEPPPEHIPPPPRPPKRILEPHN
As to the kind of experiment: Mobility shift assay (MSA) used to determine potency of PTPN1 inhibitors. The following applies: enzyme 0.5 nM, substrate 2 μM. Type of test: biochemical. As for the experimental part: Example 228: Mobility Shift Assay (MSA) Used to Determine Potency of PTPN1 Inhibitors
Compound activity was determined using in house His tagged full-length PTPN1 protein (SEQ ID NO: 3) in an in vitro enzymatic reaction. The enzymatic assay used to determine activity is a mobility shift assay using a LabChip EZ Reader by Caliper Life Sciences. The enzymatic reaction was carried out in assay buffer (50 mM HEPES pH 7.5, 1 mM EGTA, 10 mM EDTA, 0.01% Tween® 20, and 2 mM DTT). The compounds were dispensed on a white 384 well ProxiPlate™ (PerkinElmer Cat^# 6008289) plate using a Labcyte Echo® liquid handler at varying concentrations (12 point, 1:3 dilution). The enzyme (at 0.5 nM) was incubated with compound for 10 minutes at room temperature. Then the substrate (phosphorylated insulin receptor probe sequence: ((OG488)-(NH—CH2—CH2—O—CH2—CH2—O—CH2—CO)-T-R-D-I-(PY)-E-T-D-Y-Y-R-K-K-NH2) (SEQ ID NO: 2) was added at 2 μM to the plates and incubated for another 10 minutes at room temperature. Finally, a quench solution (water and 4-bromo-3-(2-oxo-2-propoxyethoxy)-5-(3-{[1-(phenylmethanesulfonyl)piperidin-4-yl]amino}phenyl)thiophene-2-carboxylic acid) was added to the plates, which were then run on the EZ Reader (excitation 488 nm, emission 530 nm) to measure % conversion (the amount of phosphorylated substrate which was de-phosphorylated by PTPN1). […] The % inhibition was then used to calculate the IC50 values.

Test [3] deals with B16F10 mouse melanoma cells. The test can be described thus: B16F10 IFNγ-induced cellular growth inhibition assay. Type of test: cell-based. As to conditions: B16-F10, with 0.5 ng/mL IFNγ, read-out: B16F10 GI IC50. The method, then: Example 229: B16F10 IFNγ-Induced Cellular Growth Inhibition Assay B16F10 mouse melanoma cells (ATCC Cat^# CRL-6475, Manassas, Va.) were seeded at a density of 500 cells per well in a 384-well clear bottom plate (Corning Cat^#3765, Corning, N.Y.) in 25 μL total volume of DMEM+10% FBS (Sigma Cat^# D6429 and Sigma Cat^# F4135, St. Louis, Mo.). Cells were allowed to adhere overnight at 37° C.+5% CO2. On the following day, 12.5 μL of mouse IFNγ (RD systems Cat^#485-MI/CF, Minneapolis, Minn.) was added to half of the plate (columns 13-24) at a concentration of 2 ng/mL for a final assay concentration of 0.5 ng/mL of IFNγ. Media only (12.5 μL of DMEM+10% FBS) was added to the remainder of the plate (columns 1-12). Next, compounds resuspended in DMSO (Sigma Cat^# D2650) at 100 mM were diluted in semi-log dilutions in DMSO ranging from 100 mM to 0.001 mM and DMSO only controls were included. The compound/DMSO dilutions were further diluted 1:250 in DMEM+10% FBS, and 12.5 μL of these dilutions were added in triplicates to cells of both treatment arms (with and without IFNγ). Final compound concentrations ranged from 100 μM to 0.001 μM with a final DMSO concentration of 0.1%. Compounds were only dosed in the inner 240 wells, avoiding the outer 2-well perimeter of the plate to minim/ze edge effects. Finally, the plate was loaded into an IncuCyte® S3 Live Cell Analysis System (Essen Bioscience-Sartorius, Ann Arbor, Mich.) maintained in a 37° C.+5% CO2 incubator, allowed to equilibrate for 2 hours, and imaged every 6 hours for 5 days. Confluence over time for compound dilutions in the presence and absence of IFNγ was measured. Growth inhibition values were obtained when the “DMSO/no IFNγ” control reached confluence >95%. At these time points, for each compound the percent growth inhibition at every compound dose level was calculated relative to the “DMSO/with IFNγ” control and used to determine the IC50.

For the molecule `O=C1CN(c2c(O)cc3c(c2F)CC(NCCc2ccccn2)CC3)S(=O)(=O)N1` (centres unmarked) [Compound 135, 5-(1-fluoro-3-hydroxy-7-{[2-(pyridin-2-yl)ethyl]amino}-5,6,7,8-tetrahydronaphthalen-2-yl)-1λ^6,2,5-thiadiazolidine-1,1,3-trione], the IC50 – broadly, the concentration needed to halve the response being measured – in test [1] was in the range of 10 to 100 nM; in test [2], 10 to 100 nM; in test [3], 1000 to 10000 nM.

As to `O=C1CN(c2c(O)cc3c(c2F)CC(NCCC(O)C(F)(F)F)CC3)S(=O)(=O)N1` (centres unmarked) [Compound 151, 5-{1-fluoro-3-hydroxy-7-[(4,4,4-trifluoro-3-hydroxybutyl)amino]-5,6,7,8-tetrahydronaphthalen-2-yl}-1λ^6,2,5-thiadiazolidine-1,1,3-trione], the figures for the IC50 in test [1], in test [2] and in test [3] were 1 to 10 nM, 10 to 100 nM and 1000 to 10000 nM, respectively.

For `CC(C)(C#N)CCNC1CCc2cc(O)c(N3CC(=O)NS3(=O)=O)c(F)c2C1` (centres unmarked) [Compound 150, 4-{[8-fluoro-6-hydroxy-7-(1,1,4-trioxo-1λ^6,2,5-thiadiazolidin-2-yl)-1,2,3,4-tetrahydronaphthalen-2-yl]amino}-2,2-dimethylbutanenitrile], the figures for the IC50 in test [1], in test [2] and in test [3] were 1 to 10 nM, 1 to 10 nM and 1000 to 10000 nM, respectively.

In the case of `C[Si](C)(C)CCCNC1CCc2cc(O)c(N3CC(=O)NS3(=O)=O)c(F)c2C1` (centres unmarked) [Compound 189, 5-(1-fluoro-3-hydroxy-7-{[3-(trimethylsilyl)propyl]amino}-5,6,7,8-tetrahydronaphthalen-2-yl)-1λ^6,2,5-thiadiazolidine-1,1,3-trione], the IC50 was 1 to 10 nM in test [1], over 100 nM in test [2] and 1000 to 10000 nM in test [3].

Regarding `CC(C)(C)CCNC1CCc2cc(O)c(N3CC(=O)NS3(=O)=O)c(F)c2C1` (centres unmarked) [Compound 174, 5-{7-[(3,3-dimethylbutyl)amino]-1-fluoro-3-hydroxy-5,6,7,8-tetrahydronaphthalen-2-yl}-1λ^6,2,5-thiadiazolidine-1,1,3-trione], the IC50 in test [1] is 1 to 10 nM; in test [2] it was 1 to 10 nM; in test [3] it was under 1000 nM.

As to `C[Si](C)(O)CCCNC1CCc2cc(O)c(N3CC(=O)NS3(=O)=O)c(F)c2C1` (centres unmarked) [Compound 190, 5-[1-fluoro-3-hydroxy-7-({3-[hydroxy(dimethyl)silyl]propyl}amino)-5,6,7,8-tetrahydronaphthalen-2-yl]-1λ^6,2,5-thiadiazolidine-1,1,3-trione], the IC50 in test [1] fell in the range of 1 to 10 nM; in test [2], 10 to 100 nM; in test [3] it was 1000 to 10000 nM.

Take `O=C1CN(c2c(O)cc3c(c2F)CCC(OCC2CC2)C3)S(=O)(=O)N1` (centres unmarked) [Compound 310, 5-[6-(cyclopropylmethoxy)-1-fluoro-3-hydroxy-5,6,7,8-tetrahydronaphthalen-2-yl]-1λ^6,2,5-thiadiazolidine-1,1,3-trione]: the IC50 in test [1] and in test [2] was 10 to 100 nM throughout.

As for `O=C1CN(c2c(O)cc3c(c2F)CN(C(=O)NCC2CCOC2)CC3)S(=O)(=O)N1` (centres unmarked) [Compound 270, 8-fluoro-6-hydroxy-N-[(oxolan-3-yl)methyl]-7-(1,1,4-trioxo-1λ^6,2,5-thiadiazolidin-2-yl)-3,4-dihydroisoquinoline-2(1H)-carboxamide], the half-maximal inhibitory concentration (IC50) in test [1] and in test [2] was 10 to 100 nM each time.

As for `CC(C)(CCN[C@H]1CCc2cc(O)c(N3CC(=O)NS3(=O)=O)c(F)c2C1)C(F)(F)F` (single isomer, unassigned) [Compound 176], the IC50 in test [1] and in test [2] was 10 to 100 nM in each case.

Regarding `COCC(C)(C)CCNC1CCc2cc(O)c(N3CC(=O)NS3(=O)=O)c(F)c2C1` (centres unmarked) [Compound 121, 5-{1-fluoro-3-hydroxy-7-[(4-methoxy-3,3-dimethylbutyl)amino]-5,6,7,8-tetrahydronaphthalen-2-yl}-1λ^6,2,5-thiadiazolidine-1,1,3-trione], the IC50 in test [1] fell in the range of 1 to 10 nM; in test [2], 10 to 100 nM.

Take `CC(O)CCOC(=O)N1CCc2cc(O)c(N3CC(=O)NS3(=O)=O)c(F)c2C1` (centres unmarked) [Compound 171, 3-hydroxybutyl 8-fluoro-6-hydroxy-7-(1,1,4-trioxo-1λ^6,2,5-thiadiazolidin-2-yl)-3,4-dihydroisoquinoline-2(1H)-carboxylate]: the IC50 in test [1] and in test [2] was 1 to 10 nM in each case.

With `CC(CCN1CCc2cc(O)c(N3CC(=O)NS3(=O)=O)c(F)c2C1)CC(C)(C)C` (centres unmarked) [Compound 302, 5-[8-fluoro-6-hydroxy-2-(3,5,5-trimethylhexyl)-1,2,3,4-tetrahydroisoquinolin-7-yl]-1λ^6,2,5-thiadiazolidine-1,1,3-trione], the IC50 lay in the range of 1 to 10 nM in test [1] and 10 to 100 nM in test [2].

Consider `CC(C)(O)CCOC1CCc2c(cc(O)c(N3CC(=O)NS3(=O)=O)c2F)C1` (centres unmarked) [Compound 309, 5-[1-fluoro-3-hydroxy-6-(3-hydroxy-3-methylbutoxy)-5,6,7,8-tetrahydronaphthalen-2-yl]-1λ^6,2,5-thiadiazolidine-1,1,3-trione], for which the IC50 in test [1] and in test [2] was 10 to 100 nM throughout.

Consider `CC(C)(O)CCNC1CCc2c(cc(O)c(N3CC(=O)NS3(=O)=O)c2F)C1` (centres unmarked) [Compound 315, 5-{1-fluoro-3-hydroxy-6-[(3-hydroxy-3-methylbutyl)amino]-5,6,7,8-tetrahydronaphthalen-2-yl}-1λ^6,2,5-thiadiazolidine-1,1,3-trione], for which the figures for the concentration for half-maximal inhibition (IC50) in test [1] and in test [2] were 1 to 10 nM and 10 to 100 nM, respectively.

For the molecule `O=C1CN(c2c(O)cc3c(c2F)C[C@@H](NCCCC(F)(F)F)CC3)S(=O)(=O)N1` (single isomer, unassigned) [Compound 147], the IC50 in test [1] and in test [2] was 10 to 100 nM in each case.

Regarding `CC(C)CCN(CCc1ccccn1)C1CCc2cc(O)c(N3CC(=O)NS3(=O)=O)c(F)c2C1` (centres unmarked) [Compound 167, 5-(1-fluoro-3-hydroxy-7-{(3-methylbutyl)[2-(pyridin-2-yl)ethyl]amino}-5,6,7,8-tetrahydronaphthalen-2-yl)-1λ^6,2,5-thiadiazolidine-1,1,3-trione], the IC50 was 1 to 10 nM in test [1] and 10 to 100 nM in test [2].
